# Values quoted from earlier work as cited in patent US7596836B2 (priority 2007, dated 2009).
# What was measured:
# [1] = in vivo
# HIV = details: clinical trials; response directly related to the dosage given
# [2] = 250 mg chloroquine phosphate twice daily must be monitored closely
# [3] = in vivo; remark: listed apart in the source
# [4] = reports in Japan, including suicide attempts
# Avian Influenza H5N1 = details: patients worldwide, current strain of Avian Influenza H5N1
# influenza = details: dosage of a compound containing 1% to 3% thymol
smiles,measurement,setting,value
CC1CCC(C(C)C)C(O)C1 (stereo not shown) [Menthol],reduction of coughing,[1],50%
CCN(CC)CCCC(C)Nc1ccnc2cc(Cl)ccc12 (stereo not shown) [chloroquine],efficacy against HIV,HIV,effective against HIV
same,toxicity of oral chloroquine,[2],ocular complications and renal toxicity
same,serum half-life,[3],96 h
CCOC(=O)C1=C[C@@H](OC(CC)CC)[C@H](NC(C)=O)[C@@H](N)C1 [oseltamivir],reported side effects,[4],serious neuropsychiatric symptoms
same,mortality of oseltamivir treated patients,Avian Influenza H5N1,~50%
"Cc1ccc(C(C)C)c(O)c1 [thymol, Thymol]",effect against influenza,influenza,effective at fighting influenza
